Source: patent publication US20040055024A1, “Conditional mutants of influenza virus M2 protein” (Medical Research Council, priority 1998, published 2004)

How the values were obtained:
[1] = system: murine MEL cells; format: cell-based, mouse
[2] = system: T-lymphocyte development (thymus, spleen); details: mouse, in vivo
[3] = system: thymic rudiments; assay: Foetal thymic organ culture of transgenic embryos in the presence of rimantadine; format: cell-based, mouse; details: thymic lobes of 15 day embryos, 7 to 10 days culture with rimantadine, FACS
Text: Opin. Immunol. 6:293-297.
Embryo sacs are removed from 15-day pregnant mice and the embryos released by cutting the umbilical cord. The embryos are stored on ice; non-embryo tissue is discarded. Any abnormal embryos, or asynchronous embryos as judged by size, are also discarded at this stage.
Foetal thymic lobes are dissected from the embryo and cultured on Costar filters (Coming) on RPMI medium. The filters are transferred to a new well of medium every day during the experiment.
At between 7 and 10 days, the thymic lobes are harvested, transferred to an eppendorf tube containing 200 μl medium, and the cells separated by teasing out mechanically. The cells are then analysed by FACS as described above.
In a second series of experiments, the thymic rudiments are cultured in the presence of rimantadine, and the cells analysed by FACS as described above.

For CC(N)C12CC3CC(CC(C3)C1)C2 (stereo not shown) [Rimantadine], the “cell kinetics after induction” value [1] was “preceded by two cell doublings before terminal differentiation and growth arrest”, the “cloning of M2(H37A) mutant in MEL cells” value [1] was “the mutant can be cloned” and the “rescue of the lack of T-cells by administration of rimantadine” value [2] was “not rescuable”. For the same compound, the “rescue of T-cell production” value [3] was “able to rescue T-cell production in the thymic rudiments”.
